Tests used:
Type in all cases: cell-based
human TLR7 = target: T1, human TLR7 (Homo sapiens, UniProt Q9NYK1); test: TLR7 inhibition reporter assay (HEK-Blue cells, SEAP reporter, gardiquimod stimulation); settings: HEK-Blue cells overexpressing human TLR7, SEAP reporter, gardiquimod 7.5 μM
T1 construct: host or cells: HEK-Blue cells (HEK293-derived reporter line)
T1 sequence (Q9NYK1 27-1049): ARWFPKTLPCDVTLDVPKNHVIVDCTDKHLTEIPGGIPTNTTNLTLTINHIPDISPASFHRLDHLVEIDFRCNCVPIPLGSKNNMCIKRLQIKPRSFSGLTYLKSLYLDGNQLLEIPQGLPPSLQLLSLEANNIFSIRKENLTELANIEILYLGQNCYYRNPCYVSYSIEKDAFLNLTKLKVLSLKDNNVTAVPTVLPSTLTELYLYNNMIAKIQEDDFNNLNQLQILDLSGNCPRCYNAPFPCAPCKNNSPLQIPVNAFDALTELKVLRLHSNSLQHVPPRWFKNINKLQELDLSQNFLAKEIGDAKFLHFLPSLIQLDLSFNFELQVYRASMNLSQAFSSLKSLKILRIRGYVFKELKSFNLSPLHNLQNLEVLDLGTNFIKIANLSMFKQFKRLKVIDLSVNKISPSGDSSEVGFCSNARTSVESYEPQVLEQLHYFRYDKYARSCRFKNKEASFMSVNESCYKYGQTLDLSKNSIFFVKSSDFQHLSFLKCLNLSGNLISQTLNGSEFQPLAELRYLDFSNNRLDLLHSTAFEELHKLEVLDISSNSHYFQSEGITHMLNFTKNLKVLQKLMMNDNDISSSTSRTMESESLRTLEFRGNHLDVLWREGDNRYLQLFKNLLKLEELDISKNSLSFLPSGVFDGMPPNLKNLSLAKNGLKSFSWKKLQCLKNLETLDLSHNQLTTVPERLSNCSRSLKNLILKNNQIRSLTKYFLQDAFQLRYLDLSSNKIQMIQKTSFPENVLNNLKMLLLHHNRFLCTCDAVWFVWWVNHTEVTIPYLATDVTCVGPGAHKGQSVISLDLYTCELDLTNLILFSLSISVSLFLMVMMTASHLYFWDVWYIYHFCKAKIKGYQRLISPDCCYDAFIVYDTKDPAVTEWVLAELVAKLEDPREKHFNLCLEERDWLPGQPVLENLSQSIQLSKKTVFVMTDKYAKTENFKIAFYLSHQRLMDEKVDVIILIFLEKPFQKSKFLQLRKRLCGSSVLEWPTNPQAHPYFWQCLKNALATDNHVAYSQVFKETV
Summary of the method: (§1)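 Agonists (final): TLR7 gardiquimod 7.5 μM; TLR8 R848 15.9 μM; TLR9 ODN2006 5 nM. HEK-Blue reporter cells, 30 min RT compound pre-incubation, 0.05 nM–50 μM dose range, 22 h at 37 °C, colorimetric SEAP detection medium. % inhibition relative to agonist+DMSO and known-inhibitor wells.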

human TLR9 = target: T2, human TLR9 (Homo sapiens, UniProt Q9NR96); test: TLR9 inhibition reporter assay (HEK-Blue cells, SEAP reporter, ODN2006 stimulation); settings: HEK-Blue cells overexpressing human TLR9, SEAP reporter, ODN2006 5 nM
T2 construct: host or cells: HEK-Blue cells (HEK293-derived reporter line)
T2 sequence (Q9NR96 26-1032): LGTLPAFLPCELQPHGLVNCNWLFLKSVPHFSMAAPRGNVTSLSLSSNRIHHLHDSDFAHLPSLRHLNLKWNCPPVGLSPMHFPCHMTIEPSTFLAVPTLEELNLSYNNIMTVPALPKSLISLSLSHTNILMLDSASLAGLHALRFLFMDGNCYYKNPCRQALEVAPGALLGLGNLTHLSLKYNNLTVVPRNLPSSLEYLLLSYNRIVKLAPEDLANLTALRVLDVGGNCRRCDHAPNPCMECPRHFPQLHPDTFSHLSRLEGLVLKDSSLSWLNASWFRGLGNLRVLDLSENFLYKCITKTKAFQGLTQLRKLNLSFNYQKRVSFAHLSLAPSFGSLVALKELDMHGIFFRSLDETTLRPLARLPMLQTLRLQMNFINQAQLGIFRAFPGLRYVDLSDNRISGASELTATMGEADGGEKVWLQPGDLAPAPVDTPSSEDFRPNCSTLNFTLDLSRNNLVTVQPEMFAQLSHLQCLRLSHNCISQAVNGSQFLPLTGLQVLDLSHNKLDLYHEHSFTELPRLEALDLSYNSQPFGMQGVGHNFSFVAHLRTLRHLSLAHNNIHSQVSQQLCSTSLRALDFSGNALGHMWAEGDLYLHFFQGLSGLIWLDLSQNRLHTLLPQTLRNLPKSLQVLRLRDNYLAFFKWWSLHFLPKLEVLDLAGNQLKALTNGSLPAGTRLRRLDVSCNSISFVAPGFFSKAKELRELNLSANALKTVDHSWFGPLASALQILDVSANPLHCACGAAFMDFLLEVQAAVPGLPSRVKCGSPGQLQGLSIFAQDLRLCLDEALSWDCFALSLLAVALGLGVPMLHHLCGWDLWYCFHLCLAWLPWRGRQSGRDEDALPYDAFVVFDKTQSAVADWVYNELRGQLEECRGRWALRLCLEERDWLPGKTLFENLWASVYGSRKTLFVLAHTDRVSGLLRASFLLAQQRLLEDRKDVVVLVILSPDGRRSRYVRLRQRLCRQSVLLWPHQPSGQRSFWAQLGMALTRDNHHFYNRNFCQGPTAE
Summary of the method: as §1

human TLR8 = target: T3, human TLR8 (Homo sapiens, UniProt Q9NR97); test: TLR8 inhibition reporter assay (HEK-Blue cells, SEAP reporter, R848 stimulation); settings: HEK-Blue cells overexpressing human TLR8, SEAP reporter, R848 15.9 μM
T3 construct: host or cells: HEK-Blue cells (HEK293-derived reporter line)
T3 sequence (Q9NR97 27-1041): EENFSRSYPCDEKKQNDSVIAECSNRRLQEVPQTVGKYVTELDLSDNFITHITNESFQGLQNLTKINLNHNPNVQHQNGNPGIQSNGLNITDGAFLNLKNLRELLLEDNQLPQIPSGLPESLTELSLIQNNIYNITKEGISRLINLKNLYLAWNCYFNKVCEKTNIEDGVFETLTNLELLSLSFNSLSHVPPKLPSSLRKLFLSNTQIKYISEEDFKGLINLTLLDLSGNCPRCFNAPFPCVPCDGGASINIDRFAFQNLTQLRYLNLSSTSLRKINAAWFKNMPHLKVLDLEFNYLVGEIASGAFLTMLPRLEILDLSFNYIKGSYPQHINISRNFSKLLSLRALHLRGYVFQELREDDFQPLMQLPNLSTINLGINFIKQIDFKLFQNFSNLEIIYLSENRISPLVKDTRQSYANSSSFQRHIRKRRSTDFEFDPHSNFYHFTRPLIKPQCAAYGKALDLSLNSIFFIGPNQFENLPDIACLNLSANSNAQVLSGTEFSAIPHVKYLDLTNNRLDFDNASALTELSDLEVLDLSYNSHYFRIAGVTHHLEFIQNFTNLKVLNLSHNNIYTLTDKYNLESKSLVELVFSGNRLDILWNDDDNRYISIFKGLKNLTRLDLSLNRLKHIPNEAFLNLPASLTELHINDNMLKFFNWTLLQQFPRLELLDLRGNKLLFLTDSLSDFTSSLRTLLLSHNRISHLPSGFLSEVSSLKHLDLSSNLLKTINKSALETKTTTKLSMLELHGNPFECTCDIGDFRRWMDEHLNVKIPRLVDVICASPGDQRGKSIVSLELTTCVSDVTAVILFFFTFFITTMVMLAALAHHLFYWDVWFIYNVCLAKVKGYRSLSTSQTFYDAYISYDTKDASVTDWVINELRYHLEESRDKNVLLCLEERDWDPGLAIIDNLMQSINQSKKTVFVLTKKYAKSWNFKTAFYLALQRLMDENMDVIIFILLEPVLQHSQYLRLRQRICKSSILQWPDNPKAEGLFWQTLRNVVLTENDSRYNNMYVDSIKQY
Summary of the method: as §1

SMILES	IC50 (human TLR7)	IC50 (human TLR9)	IC50 (human TLR8)
CCc1c(-c2ccnc3[nH]ncc23)[nH]c2ccc(C3CCN(Cc4csnn4)CC3)cc12 [Example 930, 4-((4-(3-ethyl-2-(1H-pyrazolo[3,4-b]pyridin-4-yl)-1H-indol-5-yl)piperidin-1-yl)methyl)-1,2,3-thiadiazole]	100 to 1000 nM	1000 to 50000 nM	< 100 nM
CC(C)c1c(-c2ccnc3[nH]ncc23)[nH]c2ccc(C3CCN(CCCN4CCOCC4)CC3)cc12 [Example 857, 4-(3-(4-(3-isopropyl-2-(1H-pyrazolo[3,4-b]pyridin-4-yl)-1H-indol-5-yl)piperidin-1-yl)propyl)morpholine]	1000 to 50000 nM	100 to 1000 nM	1000 to 50000 nM
Cc1nc2c(C)cc(-c3[nH]c4ccc(C5CCN(CC(=O)N(C)C)CC5)cc4c3C(C)C)cn2c1C [Example 396, 2-(4-(3-isopropyl-2-(2,3,8-trimethylimidazo[1,2-a]pyridin-6-yl)-1H-indol-5-yl)piperidin-1-yl)-N,N-dimethylacetamide]	< 100 nM	100 to 1000 nM	100 to 1000 nM
CNC(=O)CN1CCC(c2ccc3[nH]c(-c4ccc5cnnn5c4)c(C(C)C)c3c2)CC1 [Example 300, 2-(4-(2-([1,2,3]triazolo[1,5-a]pyridin-6-yl)-3-isopropyl-1H-indol-5-yl)piperidin-1-yl)-N-methylacetamide]	100 to 1000 nM	1000 to 50000 nM	100 to 1000 nM
Cc1cc(-c2[nH]c3ccc(C4CCN(C(=O)CN(C)C)CC4)cc3c2C(C)C)cc2nccnc12 [Example 518, 2-(dimethylamino)-1-(4-(3-isopropyl-2-(8-methylquinoxalin-6-yl)-1H-indol-5-yl)piperidin-1-yl)ethan-1-one]	< 100 nM	1000 to 50000 nM	< 100 nM
COc1cc(-c2[nH]c3ccc(C4CCN(C5CCOCC5)CC4)cc3c2C(C)C)cn2ccnc12 [Example 706, 6-(3-isopropyl-5-(1-(tetrahydro-2H-pyran-4-yl)piperidin-4-yl)-1H-indol-2-yl)-8-methoxyimidazo[1,2-a]pyridine]	< 100 nM	100 to 1000 nM	< 100 nM
CCc1c(-c2ccnc3[nH]cc(CC)c23)[nH]c2ccc(C3CCNCC3)cc12 [Example 220, 3-ethyl-4-(3-ethyl-5-(piperidin-4-yl)-1H-indol-2-yl)-1H-pyrrolo[2,3-b]pyridine]	100 to 1000 nM	1000 to 50000 nM	100 to 1000 nM
CC(C)c1c(-c2ccnc3[nH]ncc23)[nH]c2ccc(C3CCN(C4CCNCC4C)CC3)cc12 (stereo not drawn) [Example 834, 4-(3-isopropyl-5-(3′-methyl-[1,4′-bipiperidin]-4-yl)-1H-indol-2-yl)-1H-pyrazolo[3,4-b]pyridine]	< 100 nM	100 to 1000 nM	< 100 nM
Cc1cc(-c2[nH]c3ccc(C4CCN(CC(=O)N(C)C)CC4)cc3c2C(C)C)cc2cncn12 [Example 439, 2-(4-(3-isopropyl-2-(5-methylimidazo[1,5-a]pyridin-7-yl)-1H-indol-5-yl)piperidin-1-yl)-N,N-dimethylacetamide]	< 100 nM	1000 to 50000 nM	< 100 nM

Continued, values first:

IC50 (human TLR7)	IC50 (human TLR9)	IC50 (human TLR8)	SMILES
< 100 nM	1000 to 50000 nM	< 100 nM	Cc1cc(-c2[nH]c3ccc(C4CCN(CC(=O)N(C)C)CC4)cc3c2C(C)C)cc2ocnc12 [Example 291, 2-(4-(3-isopropyl-2-(4-methylbenzo[d]oxazol-6-yl)-1H-indol-5-yl)piperidin-1-yl)-N,N-dimethylacetamide]
< 100 nM	100 to 1000 nM	1000 to 50000 nM	CNCC(=O)N1CCC(c2ccc3[nH]c(-c4cc(F)c5nccn5c4)c(CC(F)F)c3c2)CC1 [Example 545, 1-(4-(3-(2,2-difluoroethyl)-2-(8-fluoroimidazo[1,2-a]pyridin-6-yl)-1H-indol-5-yl)piperidin-1-yl)-2-(methylamino)ethan-1-one]
< 100 nM	100 to 1000 nM	100 to 1000 nM	CNC(=O)CN1CCC(c2ccc3[nH]c(-c4cn5cc(C)nc5cc4C)c(C(C)C)c3c2)CC1 [Example 374, 2-(4-(2-(2,7-dimethylimidazo[1,2-a]pyridin-6-yl)-3-isopropyl-1H-indol-5-yl)piperidin-1-yl)-N-methylacetamide]
< 100 nM	1000 to 50000 nM	< 100 nM	CC(C)c1c(-c2ccc3ncoc3c2)[nH]c2ccc(C3CCN(CC(=O)N(C)C)CC3)cc12 [Example 288, 2-(4-(2-(benzo[d]oxazol-6-yl)-3-isopropyl-1H-indol-5-yl)piperidin-1-yl)-N,N-dimethylacetamide]
< 100 nM	1000 to 50000 nM	< 100 nM	Cc1cc(-c2[nH]c3ccc(C4CCN(C(=O)CN(C)C)CC4)cc3c2C(C)C)cc2cccnc12 [Example 529, 2-(dimethylamino)-1-(4-(3-isopropyl-2-(8-methylquinolin-6-yl)-1H-indol-5-yl)piperidin-1-yl) ethan-1-one]
